Where two headings read alike, the source gives them in different places. One block for each compound: values may come before it.
Key:
[1] = cn_pd bond, 1,4-dioxane
[2] = system: INFα induced pSTAT5; experiment: INFα induced pSTAT5 in human PBMC; type: cell-based; settings: Homo sapiens, PBMC, INFα 5000 units/ml, read-out: p-STAT5 IC50
Method: Fresh Human PBMCs were resuspended in RPMI 1640 medium with 10% FBS. Cells were seeded in a round bottom 96-well plate at the concentration of 200,000 cells/well. A 10-point dilution series of test compound (top dose 10 uM, 1:5 dilution) was added to the well using the liquid dispenser (Tecan D300e) and incubated for 1 hour at 37 C. Then human INFα recombinant protein (R&D Systems) was added to the well at the final concentration of 5000 units/ml and incubated for 15 minutes at 37 C. Cell lysates were prepared and analyzed by Phospho STAT3 (Tyr705) cellular kit (Cisbio) or Phospho STAT5 (Tyr693) Kit (Meso Scale Discovery) following manufacturer's protocol.
For calculation of the inhibition rate, the relative pSTAT signal of each well=pSTAT signal of each well−the average pSTAT signal of baseline.
The inhibition %=(the average pSTAT signal of INFα treatment wells—the relative of pSTAT signal in each compound containing well)/the average pSTAT signal of INFα treatment wells * 100%
The curve was plotted as the inhibition % (y-axis) vs. compounds concentration (x-axis) and was fitted with log(inhibitor) vs. normalized response—Variable slope by GraphPad Prism7.0.

[3] = biological target: T1, human TYK2 (JH2domain-pseudokinase) (Homo sapiens, UniProt P29597); experiment: TYK2 JH2 domain binding assay (KINOMEscan); settings: duplicate
T1 construct: host or cells: transiently transfected HEK293 cells; unpurified extract
T1 sequence (P29597 556-888): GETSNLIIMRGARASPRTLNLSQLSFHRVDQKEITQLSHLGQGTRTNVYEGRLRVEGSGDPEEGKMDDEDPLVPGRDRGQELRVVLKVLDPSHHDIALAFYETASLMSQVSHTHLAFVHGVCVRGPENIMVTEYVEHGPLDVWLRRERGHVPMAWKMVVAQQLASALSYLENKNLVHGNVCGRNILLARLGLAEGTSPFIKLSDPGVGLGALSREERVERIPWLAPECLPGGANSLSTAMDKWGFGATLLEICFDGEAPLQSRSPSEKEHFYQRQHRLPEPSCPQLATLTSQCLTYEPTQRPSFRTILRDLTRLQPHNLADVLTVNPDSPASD
Method: Binding constants for the compounds described herein against the JH2 domain were determined by the following protocol for a KINOMEscan® assay (DiscoveRx). A fusion protein of a partial length construct of human TYK2 (JH2domain-pseudokinase) (amino acids G556 to D888 based on reference sequence NP_003322.3) and the DNA binding domain of NFkB is expressed in transiently transfected HEK293 cells. From these HEK 293 cells, extracts are prepared in M-PER extraction buffer (Pierce) in the presence of Protease Inhibitor Cocktail Complete (Roche) and Phosphatase Inhibitor Cocktail Set II (Merck) per manufacturers' instructions. The TYK2 (JH2domain-pseudokinase) fusion protein is labeled with a chimeric double-stranded DNA tag containing the NFkB binding site fused to an amplicon for qPCR readout, which is added directly to the expression extract (the final concentration of DNA-tag in the binding reaction is 0.1 nM).
The liganded beads are blocked with excess biotin and washed with blocking buffer (SeaBlock (Pierce), 1% BSA, 0.05% Tween 20, 1 mM DTT) to remove unbound ligand and to reduce nonspecific binding.
Extracts are used directly in binding assays without any enzyme purification steps at a ≥10,000-fold overall stock dilution (final DNA-tagged enzyme concentration <0.1 nM). Extracts are loaded with DNA-tag and diluted into the binding reaction in a two-step process. First extracts are diluted 1:100 in 1× binding buffer (PBS/0.05% Tween 20/10 mM DTT/0.1% BSA/[…] sonicated salmon sperm DNA) containing 10 nM DNA-tag. This dilution is allowed to equilibrate at room temperature for 15 minutes and then subsequently diluted 1:100 in 1× binding buffer. Test compounds were prepared as 111×stocks in 100% DMSO. […] The compounds are then diluted directly into the assays such that the final concentration of DMSO was 0.9%. All reactions are performed in polypropylene 384-well plates. Each was a final volume of 0.02 mL.
Assays are incubated with shaking for 1 hour at room temperature. Then the beads are pelleted and washed with wash buffer (1×PBS, 0.05% Tween 20) to remove displaced kinase and test compound. […] The kinase concentration in the eluates was measured by qPCR. qPCR reactions are assembled by adding […] of kinase eluate to […] of qPCR master mix containing […] amplicon primers and […] amplicon probe. The qPCR protocol consisted of a 10 minute hot start at 95° C., followed by 35 cycles of 95° C. for 15 seconds, 60° C. for 1 minute.
Test compounds are prepared as 111×stocks in 100% DMSO. […] The compounds are then diluted directly into the assays such that the final concentration of DMSO was 0.9%. The Kds are determined using a compound top concentration of 30,000 nM. Kd measurements are performed in duplicate.
Binding constants (Kds) were calculated with a standard dose-response curve using the Hill equation: […]
The Hill Slope was set to −1. Curves were fitted using a non-linear least square fit with the Levenberg-Marquardt algorithm (Levenberg, K., A method for the solution of certain non-linear problems in least squares, Q. Appl. Math. 2, 164-168 (1944)).

[4] = Pharmacokinetic studies in Sprague Dawley rats; type: in vivo; settings: rat, plasma, male Sprague Dawley rats
Method: The pharmacokinetics of test compounds were evaluated in male Sprague Dawley rats when administered via oral gavage and IV injection. The test compound was suspended in 0.5% methylcellulose for oral gavage and dissolved in 5% DMSO/5% Solutol/90% saline for IV injection. The animals were fasted overnight before administration. Plasma samples were collected predose and at 0.5, 1, 3, 6, 9, 12, and 24 hours postdose. The samples were analyzed by LC/MS/MS and the concentration of test compound at each timepoint was determined by linear regression. Pharmacokinetic parameters were calculated from the plasma concentrations using Pheonix WinNonlin.

SMILES: CNC(=O)Oc1cc(Cl)nn2c(C(=O)NC3CC(OCc4ccc(OC)c([N+](=O)[O-])c4)C3)cnc12 (stereo not shown)
ring closure, isolated yield ([1]; the molecule shown is the open-chain precursor, 15-membered ring, tBuXPhos-Pd-G3/Cs2CO3, 50.0 mM, 80.0 °C): 20.2%

SMILES: COc1c(F)cc2cc1Nc1cc(N(C)C(=O)OC(C)(C)C)n3ncc(c3n1)C(=O)N[C@H](C)COC2
ring closure, isolated yield ([1]; from COc1c(N)cc(COC[C@@H](C)NC(=O)c2cnn3c(N(C)C(=O)OC(C)(C)C)cc(Cl)nc23)cc1F, 14-membered ring, tBuXPhos-Pd-G3/Cs2CO3, 8.4 mM, 80.0 °C, 2.0 h): 52.5%

SMILES: COc1c(F)cc2cc1Nc1cc(NC(=O)OC(C)(C)C)c3ncc(n3n1)C(=O)N[C@H](C)COC2
ring closure, isolated yield ([1]; from COc1c(N)cc(COC[C@@H](C)NC(=O)c2cnc3c(NC(=O)OC(C)(C)C)cc(Cl)nn23)cc1F, 14-membered ring, tBuXPhos-Pd-G3/Cs2CO3, 8.4 mM, 80.0 °C, 2.0 h): 52.5%

SMILES: COc1c2cc(c(F)c1F)COC[C@@H](C)NC(=O)c1cnc3c(NC(=O)OC(C)(C)C)cc(nn13)N2
ring closure, isolated yield ([1]; from COc1c(N)cc(COC[C@@H](C)NC(=O)c2cnc3c(NC(=O)OC(C)(C)C)cc(Cl)nn23)c(F)c1F, 14-membered ring, tBuXPhos-Pd-G3/Cs2CO3, 3.5 mM, 80.0 °C, 2.0 h): 47%

SMILES: COc1cc(F)c2cc1Nc1cc(N(C)C(=O)OC(C)(C)C)c3ncc(n3n1)C(=O)NC(C)COC2 (stereo not shown)
ring closure, isolated yield ([1]; from COc1cc(F)c(COCC(C)NC(=O)c2cnc3c(N(C)C(=O)OC(C)(C)C)cc(Cl)nn23)cc1N, 14-membered ring, tBuXPhos-Pd-G3/Cs2CO3, 4.1 mM, 85.0 °C, 2.0 h): 53.6%

SMILES: COc1cc(F)c2cc1Nc1cc(N(C)C(=O)OC(C)(C)C)n3ncc(c3n1)C(=O)N[C@H](C)COC2
ring closure, isolated yield ([1]; from COc1cc(F)c(COC[C@@H](C)NC(=O)c2cnn3c(N(C)C(=O)OC(C)(C)C)cc(Cl)nc23)cc1N, 14-membered ring, Pd2(dba)3/XPhos/Cs2CO3, 23.3 mM, 90.0 °C, 1.0 h): 74%

SMILES: COc1cc(F)c2cc1Nc1cc(NC(=O)OC(C)(C)C)c3ncc(n3n1)C(=O)N[C@H](C)COC2
ring closure, isolated yield ([1]; from COc1cc(F)c(COC[C@@H](C)NC(=O)c2cnc3c(NC(=O)OC(C)(C)C)cc(Cl)nn23)cc1N, 14-membered ring, tBuXPhos-Pd-G3/Cs2CO3, 10.25 mM, 80.0 °C, 2.0 h): 56.1%

SMILES: COc1cc2cnn3c2cc1Nc1cc(N(C)C(=O)OC(C)(C)C)c2ncc(n2n1)C(=O)NC(C)CC3 (stereo not shown)
ring closure, isolated yield ([1]; from COc1cc2cnn(CCC(C)NC(=O)c3cnc4c(N(C)C(=O)OC(C)(C)C)cc(Cl)nn34)c2cc1N, 14-membered ring, tBuXPhos-Pd-G3/Cs2CO3, 25.0 mM, 80.0 °C, 3.0 h): 59%

SMILES: COc1ccc2cc1Nc1cc(N(C)C(=O)OC(C)(C)C)c3ncc(n3n1)C(=O)NC1(CC1)COC2
ring closure, isolated yield ([1]; from COc1ccc(COCC2(NC(=O)c3cnc4c(N(C)C(=O)OC(C)(C)C)cc(Cl)nn34)CC2)cc1N, 14-membered ring, tBuXPhos-Pd-G3/Cs2CO3, 15.0 mM, 85.0 °C, 2.0 h): 58.7%

SMILES: COc1ccc2cc1Nc1cc(N(C)C(=O)OC(C)(C)C)c3ncc(n3n1)C(=O)N[C@H](C)CN(C)C2
ring closure, isolated yield ([1]; from COc1ccc(CN(C)C[C@@H](C)NC(=O)c2cnc3c(N(C)C(=O)OC(C)(C)C)cc(Cl)nn23)cc1N, 14-membered ring, Pd2(dba)3/XPhos/Cs2CO3, 56.0 mM, 95.0 °C, 3.5 h): 10.8%

SMILES: COc1ccc2nc1Nc1cc(N(C)C(=O)OC(C)(C)C)n3ncc(c3n1)C(=O)N[C@H](C)COC2
ring closure, isolated yield ([1]; from COc1ccc(COC[C@@H](C)NC(=O)c2cnn3c(N(C)C(=O)OC(C)(C)C)cc(Cl)nc23)nc1N, 14-membered ring, Pd2(dba)3/XPhos/Cs2CO3, 6.3 mM, 95.0 °C, 3.5 h): 84.2%

SMILES: COc1nnc2cc1Nc1cc(N(C)C(=O)OC(C)(C)C)n3ncc(c3n1)C(=O)N[C@H](C)COC2
ring closure, isolated yield ([1]; from COc1nnc(COC[C@@H](C)NC(=O)c2cnn3c(N(C)C(=O)OC(C)(C)C)cc(Cl)nc23)cc1N, 14-membered ring, tBuXPhos-Pd-G3/Cs2CO3, […], 80.0 °C, 2.0 h): 21.7%

SMILES: C[C@@H]1COCc2cc(c(=O)n(C)n2)Nc2cc(N(C)C(=O)OC(C)(C)C)c3ncc(n3n2)C(=O)N1
ring closure, isolated yield ([1]; from C[C@H](COCc1cc(N)c(=O)n(C)n1)NC(=O)c1cnc2c(N(C)C(=O)OC(C)(C)C)cc(Cl)nn12, 14-membered ring, tBuXPhos-Pd-G3/Cs2CO3, […], 80.0 °C, 2.0 h): 78.2%

SMILES: C[C@@H]1COCc2cc(c(=O)n(C)n2)Nc2cc(N(C)C(=O)OC(C)(C)C)n3ncc(c3n2)C(=O)N1
ring closure, isolated yield ([1]; from C[C@H](COCc1cc(N)c(=O)n(C)n1)NC(=O)c1cnn2c(N(C)C(=O)OC(C)(C)C)cc(Cl)nc12, 14-membered ring, tBuXPhos-Pd-G3/Cs2CO3, 19.0 mM, 85.0 °C, 2.0 h): 70%

SMILES: C[C@@H]1COCc2cc(c3cn(C)nc3c2)Nc2cc(N(C)C(=O)OC(C)(C)C)n3ncc(c3n2)C(=O)N1
ring closure, isolated yield ([1]; from C[C@H](COCc1cc(N)c2cn(C)nc2c1)NC(=O)c1cnn2c(N(C)C(=O)OC(C)(C)C)cc(Cl)nc12, 14-membered ring, Pd2(dba)3/XPhos/Cs2CO3, 18.0 mM, 95.0 °C, 3.5 h): 82.2%

SMILES: C[C@@H]1COCc2cc(c3nccn3c2)Nc2cc(N(C)C(=O)OC(C)(C)C)n3ncc(c3n2)C(=O)N1
ring closure, isolated yield ([1]; from C[C@H](COCc1cc(N)c2nccn2c1)NC(=O)c1cnn2c(N(C)C(=O)OC(C)(C)C)cc(Cl)nc12, 14-membered ring, tBuXPhos-Pd-G3/Cs2CO3, 11.5 mM, 80.0 °C, 2.0 h): 72%

SMILES: C[C@@H]1COCc2ccc(F)c(c2)Nc2cc(N(C)C(=O)OC(C)(C)C)n3ncc(c3n2)C(=O)N1
ring closure, isolated yield ([1]; from C[C@H](COCc1ccc(F)c(N)c1)NC(=O)c1cnn2c(N(C)C(=O)OC(C)(C)C)cc(Cl)nc12, 14-membered ring, tBuXPhos-Pd-G3/Cs2CO3, 20.0 mM, 85.0 °C, 2.0 h): 30%

SMILES: Cc1cc2nc(n1)COC[C@@H](C)NC(=O)c1cnc3c(N(C)C(=O)OC(C)(C)C)cc(nn13)N2
ring closure, isolated yield ([1]; from Cc1cc(N)nc(COC[C@@H](C)NC(=O)c2cnc3c(N(C)C(=O)OC(C)(C)C)cc(Cl)nn23)n1, 14-membered ring, Pd2(dba)3/XPhos/Cs2CO3, 40.0 mM, 80.0 °C, 1.0 h): 53%

IC50 [2]: 26.2 nM
Kd [3]: 0.071 nM
SMILES: CNc1cc2nn3c(cnc13)C(=O)NCCOCc1ccc(OC)c(c1)N2 [Example 6]

IC50 [2]: 5.1 nM
AUC ([4]; iv, I.V. (1 mg/kg)): 472 ± 93 ng·h/mL
C0 ([4]; iv, I.V. (1 mg/kg)): 539 ± 54 ng/mL
clearance ([4]; iv, I.V. (1 mg/kg)): 36.1 ± 8 mL/min/kg
half-life ([4]; iv, I.V. (1 mg/kg)): 1.02 ± 0.059 h
Vd ([4]; iv, I.V. (1 mg/kg), read-out: Vdss): 2.17 ± 0.08 L/kg
AUC ([4]; Oral (5 mg/kg)): 147 ± 40 ng·h/mL
Cmax ([4]; Oral (5 mg/kg)): 22.2 ± 5 ng/mL
Tmax ([4]; Oral (5 mg/kg)): 2.67 ± 1.2 h
bioavailability ([4]; Oral (5 mg/kg)): 6.23 ± 1.7%
half-life ([4]; Oral (5 mg/kg)): 4.11 ± 1.9 h
SMILES: CNc1cc2nn3c(cnc13)C(=O)N[C@H](C)COCc1cc(c(=O)n(C)c1)N2 [Example 15]
